A short description of the data set: Clarity, pH and aging stability of aqueous SnF2/STPP solutions. The data set is classed as physicochemical. Conditions: 2% stannous fluoride solution without STPP.

Experimental findings from US20170360664A1, “PERSONAL CARE COMPOSITIONS” (Colgate-Palmolive Company, priority 2015, published 2017) are described below.

Protocol: The solutions are then further mixed at room temperature until a clear solution forms. All of the solutions contain 2% SnF2.
The solutions with a P:Sn molar ratio spanning from 1 to 15 containing 2% SnF2 are aged overnight at room temperature.
A different set of solutions with a P:Sn molar ratio of 2 and 5 are placed in a 50° C. oven for eight weeks.

On to `[F][Sn][F]` [stannous fluoride], for which the Appearance after dissolution entry is on record as “precipitate almost immediately after dissolution”.
